Assay results reported in ChEMBL document CHEMBL1158995, “A novel perlactone from the Caribbean sponge Plakortis angulospiculatus” (J Nat Prod, 1991).
Active and inactive are the calls of the source. The rule behind the calls is not given here.

System: Candida albicans
Experiment: Antimicrobial activity against Candida albicans ATCC 32354
Assay type: functional, organism-based

## CC1=C(O)C(C)(CCCCCC(C)CCCCc2ccc(O)cc2)OOC1=O (stereo unspecified)
  Activity: inactive
